Results published in patent publication US20240158446A1, “CYCLIC COMPOUND HAVING SELECTIVE INHIBITORY ACTION ON KRAS OVER HRAS AND NRAS” (CHUGAI SEIYAKU KABUSHIKI KAISHA, priority 2021, published 2024).
Where a SMILES comes first, the peptide text is derived from it. Bridges are numbered along the chain shown (N, C = ends). [ ]: non-standard residue; d: D form. The star is where a group is joined. hPhe(3,5-F2-4-CF3) = N[C@@H](CCc1cc(F)c(C(F)(F)F)c(F)c1)C(=O)O; hPhe(3-Cl-4-CF3) = N[C@@H](CCc1ccc(C(F)(F)F)c(Cl)c1)C(=O)O; NPrPhe(4-CF3) = CCCN[C@@H](Cc1ccc(C(F)(F)F)cc1)C(=O)O; NMeGly(cPent) = CN[C@H](C(=O)O)C1CCCC1; Pro(4,4-Me2) = CC1(C)CN[C@H](C(=O)O)C1; NMeD = CN[C@@H](CC(=O)O)C(=O)O; NMeL = CN[C@@H](CC(C)C)C(=O)O; αMeS = C[C@](N)(CO)C(=O)O; Morpholide = C1CN(*)CCO1; Ac5c = NC1(C(=O)O)CCCC1; Aze = O=C(O)[C@@H]1CCN1; Sar = CNCC(=O)O

Assays:
[1] = molecular target: GDP-bound HRAS wild-type protein (Homo sapiens, UniProt P01112); test: Binding to HRAS by surface plasmon resonance (SPR), Single Cycle Kinetics; details: for HRAS/KRAS (ratio of KD value with respect to HRAS to KD value with respect to KRAS) / HRAS/KRAS (ratio of KD value for HRAS to KD value for KRAS): SPR, GDP-bound HRAS wild-type protein vs GDP-bound KRAS wild-type protein
[2] = molecular target: GDP-bound NRAS wild-type protein (Homo sapiens, UniProt P01111); test: Binding to NRAS by surface plasmon resonance (SPR), Single Cycle Kinetics; details: for NRAS/KRAS (ratio of KD value with respect to NRAS to KD value with respect to KRAS) / NRAS/KRAS (ratio of KD value for NRAS to KD value for KRAS): SPR, GDP-bound NRAS wild-type protein vs GDP-bound KRAS wild-type protein
[3] = tested on: human lung cancer strain NCI-H441;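 note: cell proliferation inhibition after four days measured by CellTiter-Glo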

Chain of GDP-bound HRAS wild-type protein (P01112 whole entry): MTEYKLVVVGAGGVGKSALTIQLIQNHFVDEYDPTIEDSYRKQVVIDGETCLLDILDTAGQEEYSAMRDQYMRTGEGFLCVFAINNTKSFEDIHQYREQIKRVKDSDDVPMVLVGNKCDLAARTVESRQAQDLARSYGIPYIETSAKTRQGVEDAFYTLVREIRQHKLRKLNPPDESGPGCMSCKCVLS
Chain of GDP-bound NRAS wild-type protein (P01111 whole entry): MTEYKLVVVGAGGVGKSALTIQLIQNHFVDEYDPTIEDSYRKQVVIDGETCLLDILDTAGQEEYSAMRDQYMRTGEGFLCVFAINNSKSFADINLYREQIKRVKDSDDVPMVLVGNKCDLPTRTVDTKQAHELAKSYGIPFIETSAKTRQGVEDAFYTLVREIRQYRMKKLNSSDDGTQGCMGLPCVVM

| IC50 [3] [nM] | Compound | HRAS/KRAS (ratio of KD value with respect to HRAS to KD value with respect to KRAS) [1] | NRAS/KRAS (ratio of KD value with respect to NRAS to KD value with respect to KRAS) [2] | HRAS/KRAS (ratio of KD value for HRAS to KD value for KRAS) [1] | NRAS/KRAS (ratio of KD value for NRAS to KD value for KRAS) [2] | HRAS/KRAS (ratio of KD value with respect to GDP-bound HRAS wild-type protein to KD value with respect to KRAS) ([1]; SPR KD ratio HRAS/KRAS, class symbols) | NRAS/KRAS (ratio of KD value with respect to GDP-bound NRAS wild-type protein to KD value with respect to KRAS) ([2]; SPR KD ratio NRAS/KRAS, class symbols) |
| --- | --- | --- | --- | --- | --- | --- | --- |
| 42.3 | CCO[C@@H]1C[C@H]2C(=O)NC3(CCC3)C(=O)N(C)[C@@H](C3CCCC3)C(=O)N(C)[C@H](C(=O)N3CCOCC3)CC(=O)N(C)[C@@H](Cc3cccnc3)C(=O)N[C@@H]([C@@H](C)CC)C(=O)N(C)CC(=O)N(C)[C@H]3CCCCN(C3=O)[C@@H](Cc3ccc(C(F)(F)F)cc3)C(=O)N(C)CC(=O)N[C@@H](CCc3cc(F)c(C(F)(F)F)c(F)c3)C(=O)N2C1 [PP0718] | B (a compound having 3 or more and less than 10 is denoted as B) | C (A compound having a KD ratio of 0.1 or more and less than 3 is denoted as C) | – | – | – | – |
| 296 | CCO[C@@H]1C[C@H]2C(=O)NC3(CCC3)C(=O)N(C)[C@@H](C3CCCC3)C(=O)N(C)[C@H](C(=O)N(C)C)CC(=O)N(CC)[C@@H](CC(C)C)C(=O)N[C@@H]([C@@H](C)CC)C(=O)N(C)CC(=O)N(C)[C@H]3CC(C)=CCN(C3=O)[C@@H](Cc3ccc(C(F)(F)F)cc3)C(=O)N(C)CC(=O)N[C@@H](CCc3cc(F)c(C(F)(F)F)c(F)c3)C(=O)N2C1 [PP1037] | – | – | C (A compound having a KD ratio of 0.1 or more and less than 3 is denoted as C) | C (A compound having a KD ratio of 0.1 or more and less than 3 is denoted as C) | – | – |
| 5.7 | CCO[C@@H]1C[C@H]2C(=O)NC3(CC(C)(C)C3)C(=O)N(C)[C@@H](C3CCCC3)C(=O)N(C)[C@H](C(=O)N(C)C)CC(=O)N(C)[C@@H](CC(C)C)C(=O)N[C@@H]([C@@H](C)CC)C(=O)N(C3CC3)CC(=O)N(C)[C@H]3C/C=C\CCN(C3=O)[C@@H](Cc3ccc(C)cc3)C(=O)N(C)CC(=O)N[C@@H](CCc3cc(F)c(C(F)(F)F)c(F)c3)C(=O)N2C1 [PP2109] | – | – | A (a compound having 10 or more and less than 20 is denoted as A) | A (a compound having 10 or more and less than 20 is denoted as A) | – | – |

Second part, the molecule before the results:

| Compound | IC50 [3] [nM] | HRAS/KRAS (ratio of KD value with respect to HRAS to KD value with respect to KRAS) [1] | NRAS/KRAS (ratio of KD value with respect to NRAS to KD value with respect to KRAS) [2] | HRAS/KRAS (ratio of KD value for HRAS to KD value for KRAS) [1] | NRAS/KRAS (ratio of KD value for NRAS to KD value for KRAS) [2] | HRAS/KRAS (ratio of KD value with respect to GDP-bound HRAS wild-type protein to KD value with respect to KRAS) ([1]; SPR KD ratio HRAS/KRAS, class symbols) | NRAS/KRAS (ratio of KD value with respect to GDP-bound NRAS wild-type protein to KD value with respect to KRAS) ([2]; SPR KD ratio NRAS/KRAS, class symbols) |
| --- | --- | --- | --- | --- | --- | --- | --- |
| CCCN1C(=O)CN(C)C(=O)[C@@H]2CCN2C(=O)[C@H]([C@@H](C)CC)NC(=O)[C@H](CC(C)C)N(C)C(=O)C[C@@H](C(=O)N(C)C)N(C)C(=O)[C@H](C2CCCC2)N(C)C(=O)C2(CCCC2)NC(=O)[C@@H]2CCCN2C(=O)[C@H](CCc2ccc(C(F)(F)F)c(Cl)c2)NC(=O)CN(C)C(=O)[C@@H]1Cc1ccc(C(F)(F)F)cc1 [PP0429] ([NMeL]I[Aze][Sar][NPrPhe(4-CF3)][Sar][hPhe(3-Cl-4-CF3)]P[Ac5c][NMeGly(cPent)][NMeD]-NMe2; lactam N-11) | 12.4 | C (A compound having a KD ratio of 0.1 or more and less than 3 is denoted as C) | B (a compound having 3 or more and less than 10 is denoted as B) | – | – | – | – |
| CCCN1C(=O)CN(C)C(=O)[C@@H]2CCN2C(=O)[C@H]([C@@H](C)CC)NC(=O)[C@H](CC(C)C)N(C)C(=O)C[C@@H](C(=O)N2CCOCC2)N(C)C(=O)[C@H](C2CCCC2)N(C)C(=O)C2(CCCC2)NC(=O)[C@@H]2CC(C)(C)CN2C(=O)[C@H](CCc2ccc(C(F)(F)F)c(Cl)c2)NC(=O)CN(C)C(=O)[C@@H]1Cc1ccc(C(F)(F)F)cc1 [PP0452] ([NMeL]I[Aze][Sar][NPrPhe(4-CF3)][Sar][hPhe(3-Cl-4-CF3)][Pro(4,4-Me2)][Ac5c][NMeGly(cPent)][NMeD]-Morpholide; lactam N-11) | 34.1 | B (a compound having 3 or more and less than 10 is denoted as B) | B (a compound having 3 or more and less than 10 is denoted as B) | – | – | – | – |
| CCCN1C(=O)CN(C)C(=O)[C@@H]2CCN2C(=O)[C@H]([C@@H](C)CC)NC(=O)[C@H](CC(C)C)N(C)C(=O)C[C@@H](C(=O)N2CCOCC2)N(C)C(=O)[C@H](C2CCCC2)N(C)C(=O)[C@](C)(COC)NC(=O)[C@@H]2CCCN2C(=O)[C@H](CCc2cc(F)c(C(F)(F)F)c(F)c2)NC(=O)CN(C)C(=O)[C@@H]1Cc1ccc(C(F)(F)F)cc1 [PP0779] ([NMeL]I[Aze][Sar][NPrPhe(4-CF3)][Sar][hPhe(3,5-F2-4-CF3)]P[αMeS](Me)[NMeGly(cPent)][NMeD]-Morpholide; lactam N-11) | 364 | B (a compound having 3 or more and less than 10 is denoted as B) | B (a compound having 3 or more and less than 10 is denoted as B) | – | – | – | – |
| CCC(CC)[C@H]1C(=O)N(C)[C@H](C(=O)N(C)C)CC(=O)N(C)[C@@H](COC)C(=O)N[C@@H]([C@@H](C)CC)C(=O)N(C)CC(=O)N(C)[C@H]2C/C=C\CCN(C2=O)[C@@H](Cc2ccc(C)cc2)C(=O)N(C)CC(=O)N[C@@H](CCc2ccc(Cl)c(Cl)c2)C(=O)N2C[C@H](OC3CCC3)C[C@H]2C(=O)N(C)C2(CC(C)(C)C2)C(=O)N1C [PP2816] | 22.8 | – | – | – | – | A (a compound having 10 or more and less than 20 is denoted as A) | AA (a compound having 20 or more is denoted as AA) |
